Test results: patent US20250230155A1 (Vanderbilt University, priority 2021, published 2025)

Biological target: T1, human mAChR M4 (Homo sapiens, UniProt P08173)
T1 construct: expressed in transfected cells
T1 sequence (P08173 1-479): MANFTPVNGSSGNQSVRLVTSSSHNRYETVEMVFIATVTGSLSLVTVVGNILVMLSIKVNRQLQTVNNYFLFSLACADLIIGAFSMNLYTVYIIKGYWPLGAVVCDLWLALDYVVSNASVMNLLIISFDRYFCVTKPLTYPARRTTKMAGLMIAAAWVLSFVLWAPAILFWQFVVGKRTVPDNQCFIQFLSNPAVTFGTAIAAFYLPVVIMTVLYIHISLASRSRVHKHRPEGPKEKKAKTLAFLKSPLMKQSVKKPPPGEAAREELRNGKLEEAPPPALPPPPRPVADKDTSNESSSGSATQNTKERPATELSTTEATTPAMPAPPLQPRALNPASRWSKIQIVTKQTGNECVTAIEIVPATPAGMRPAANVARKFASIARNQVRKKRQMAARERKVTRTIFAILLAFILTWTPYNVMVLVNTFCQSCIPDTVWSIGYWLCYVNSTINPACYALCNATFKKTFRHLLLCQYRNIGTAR
Experiment: mAChR M4 cell-based functional assay (calcium mobilization, CHO-K1 hM4-Gqi5 cells)
Details: for Emax at 30 µM: CHO-K1, % ACh maximum at 30 μM, human M4; for EC50: positive allosteric modulator activity, increase in the EC20 acetylcholine response, CHO-K1 hM4-Gqi5 cells, read-out: Human M4 EC50
Procedure, shortened: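 Fluorescent calcium read-out (Fluo-4 AM, FDSS, 1 Hz) in hM4-Gqi5 CHO-K1 cells, 11-point 1:3 compound series. Agonism scored on compound addition, PAM activity as increase of the 144 s EC20 acetylcholine response, antagonism as decrease of the 230 s EC80 response; four-parameter logistic fits give EC50 and Emax.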

Row | Compound | Emax at 30 µM [%] | EC50 [nM]
1 | Cc1nc(Cl)c(C)c(N2CCc3ncc(Nc4ccc(F)cc4F)cc3C2)n1 [compound 87, 6-(6-chloro-2,5-dimethyl-pyrimidin-4-yl)-N-(2,4-difluorophenyl)-7,8-dihydro-5H-1,6-naphthyridin-3-amine] | 82 | 815
2 | Cc1cc(C(=O)N2CC(F)(F)C2)nnc1N1CCc2ncc(N3CCO[C@H](C)C3)cc2C1 [Example 539, (R)-(3,3-difluoroazetidin-1-yl)(5-methyl-6-(3-(2-methylmorpholino)-7,8-dihydro-1,6-naphthyridin-6(5H)-yl)pyridazin-3-yl)methanone] | 101 | 51
3 | Cc1cc(F)ncc1-c1cnc2c(c1)CN(c1nnc(C#N)cc1C)CC2 [Example 593, 6-(3-(6-fluoro-4-methylpyridin-3-yl)-7,8-dihydro-1,6-naphthyridin-6(5H)-yl)-5-methylpyridazine-3-carbonitrile] | 70 | 876
4 | Cc1cc(C#N)cnc1N1CCc2ncc(N3CCN(C)CC3=O)cc2C1 [Example 420, 5-methyl-6-(3-(4-methyl-2-oxopiperazin-1-yl)-7,8-dihydro-1,6-naphthyridin-6(5H)-yl)nicotinonitrile] | 43 | ≥ 10000
5 | Cc1cnc2c(c1)CN(c1ncc(C(=O)NCc3ccncc3C)cc1C)CC2 [Example 441, 5-methyl-6-(3-methyl-7,8-dihydro-1,6-naphthyridin-6(5H)-yl)-N-((3-methylpyridin-4-yl)methyl)nicotinamide] | 88 | 143
6 | Cc1c(C#N)nnc(N2CCc3ncc(-c4ccc(F)nc4)cc3C2)c1C [Example 334, 6-(3-(6-fluoropyridin-3-yl)-7,8-dihydro-1,6-naphthyridin-6(5H)-yl)-4,5-dimethylpyridazine-3-carbonitrile] | 60 | 582
7 | Cc1ccc(Nc2cnc3c(c2)CN(c2nnc(C#N)c(C)c2C)CC3)c(F)n1 [compound 79, 6-[3-[(2-fluoro-6-methyl-3-pyridyl)amino]-7,8-dihydro-5H-1,6-naphthyridin-6-yl]-4,5-dimethyl-pyridazine-3-carbonitrile] | 82 | 232
8 | O=C1c2cc(Br)c(N3CCc4ncc(C(F)(F)F)cc4C3)nc2OCCN1Cc1ccccc1 [Example 591, 4-benzyl-7-bromo-8-(3-(trifluoromethyl)-7,8-dihydro-1,6-naphthyridin-6(5H)-yl)-3,4-dihydropyrido[3,2-f][1,4]oxazepin-5(2H)-one] | 56 | 1990
9 | COc1nc(N2CCc3ncc(C(F)(F)F)cc3C2)c(C)cc1C#N [Example 371, 2-methoxy-5-methyl-6-(3-(trifluoromethyl)-7,8-dihydro-1,6-naphthyridin-6(5H)-yl)nicotinonitrile] | 75 | 4350
10 | Cc1cc(C(=O)N2CC(c3ccncc3)C2)nnc1N1CCc2ncc(N3CCCn4nccc43)cc2C1 [Example 517, (6-(3-(6,7-dihydropyrazolo[1,5-a]pyrimidin-4(5H)-yl)-7,8-dihydro-1,6-naphthyridin-6(5H)-yl)-5-methylpyridazin-3-yl)(3-(pyridin-4-yl)azetidin-1-yl)methanone] | 76 | 12
11 | Cc1cc(F)c(F)cc1-c1cnc2c(c1)CN(c1nnc(C#N)cc1C)CC2 [Example 596, 6-(3-(4,5-difluoro-2-methylphenyl)-7,8-dihydro-1,6-naphthyridin-6(5H)-yl)-5-methylpyridazine-3-carbonitrile] | 54 | 1880
12 | Cc1cc(C#N)cnc1N1CCc2ncc(-c3cncs3)cc2C1 [compound 95, 5-methyl-6-(3-thiazol-5-yl-7,8-dihydro-5H-1,6-naphthyridin-6-yl)pyridine-3-carbonitrile] | 98 | 84.1
13 | Cc1cc(C(=O)NCc2ccc3ncccc3c2)cnc1N1CCc2ncccc2C1 [compound 68, 6-(7,8-dihydro-5H-1,6-naphthyridin-6-yl)-5-methyl-N-(6-quinolylmethyl)pyridine-3-carboxamide] | 43 | 3140
14 | Cc1nc(Cl)c(C)c(N2CCc3ncc(Nc4cccc(F)c4F)cc3C2)n1 [compound 86, 6-(6-chloro-2,5-dimethyl-pyrimidin-4-yl)-N-(2,3-difluorophenyl)-7,8-dihydro-5H-1,6-naphthyridin-3-amine] | 84 | 654
15 | Cc1nc(N2CCCC2)c(C)c(N2CCc3ncc(-c4ccc(F)nc4)cc3C2)n1 [compound 223, 6-(2,5-dimethyl-6-(pyrrolidin-1-yl)pyrimidin-4-yl)-3-(6-fluoropyridin-3-yl)-5,6,7,8-tetrahydro-1,6-naphthyridine] | 56 | 3290
16 | Cc1cc(C(=O)NCC2CCOCC2)cnc1N1CCc2ncc(-c3cn(C)nc3C)cc2C1 [Example 459, 6-(3-(1,3-dimethyl-1H-pyrazol-4-yl)-7,8-dihydro-1,6-naphthyridin-6(5H)-yl)-5-methyl-N-((tetrahydro-2H-pyran-4-yl)methyl)nicotinamide] | 71 | 1190
17 | Cc1cc(C(=O)NCc2ccc3ncnn3c2)cnc1N1CCc2ncc(-c3cn(C)nc3C)cc2C1 [Example 479, N-([1,2,4]triazolo[1,5-a]pyridin-6-ylmethyl)-6-(3-(1,3-dimethyl-1/- pyrazol-4-yl)-7,8-dihydro-1,6-naphthyridin-6(5H)-yl)-5-methylnicotinamide] | 57 | 886
18 | Cc1cc(C#N)nnc1N1CCc2ncc(N3CCOc4ncccc43)cc2C1 [Example 391, 6-(3-(2,3-dihydro-1H-pyrido[2,3-b][1,4]oxazin-1-yl)-7,8-dihydro-1,6-naphthyridin-6(5H)-yl)-5-methylpyridazine-3-carbonitrile] | 89 | 53
19 | COc1cnccc1CNC(=O)c1cc(C)c(N2CCc3ncc(C(F)(F)F)cc3C2)nn1 [Example 495, N-((3-methoxypyridin-4-yl)methyl)-5-methyl-6-(3-(trifluoromethyl)-7,8-dihydro-1,6-naphthyridin-6(5H)-yl)pyridazine-3-carboxamide] | 102 | 43
20 | Cc1cc(C#N)nnc1N1CCc2ncc(-c3ccc(C4CC4)nc3)cc2C1 [Example 321, 6-(3-(6-cyclopropylpyridin-3-yl)-7,8-dihydro-1,6-naphthyridin-6(5H)-yl)-5-methylpyridazine-3-carbonitrile] | 73 | 356
21 | Cc1cc(C#N)cnc1N1CCc2ncc(-c3ccnc(F)c3)cc2C1 [Example 340, 6-(3-(2-fluoropyridin-4-yl)-7,8-dihydro-1,6-naphthyridin-6(5)-yl)-5-methylnicotinonitrile] | 81 | 7550
22 | Cc1cc(C(=O)N2CCC(c3ccncc3)C2)nnc1N1CCc2ncc(N3CCCn4nccc43)cc2C1 (centres unmarked) [Example 521, (6-(3-(6,7-dihydropyrazolo[1,5-a]pyrimidin-4(5H)-yl)-7,8-dihydro-1,6-naphthyridin-6(5H)-yl)-5-methylpyridazin-3-yl)(3-(pyridin-4-yl)pyrrolidin-1-yl)methanone] | 99 | 98
